Assay in all cases: Screen Quest Fluo-8 No Wash Calcium Assay (Bz-ATP evoked Ca2+ influx, FLIPR)
Holding throughout (type): cell-based

The target in assay [1] is T1, P2X7 receptor (Homo sapiens, UniProt Q99572).
T1 sequence (Q99572 1-595): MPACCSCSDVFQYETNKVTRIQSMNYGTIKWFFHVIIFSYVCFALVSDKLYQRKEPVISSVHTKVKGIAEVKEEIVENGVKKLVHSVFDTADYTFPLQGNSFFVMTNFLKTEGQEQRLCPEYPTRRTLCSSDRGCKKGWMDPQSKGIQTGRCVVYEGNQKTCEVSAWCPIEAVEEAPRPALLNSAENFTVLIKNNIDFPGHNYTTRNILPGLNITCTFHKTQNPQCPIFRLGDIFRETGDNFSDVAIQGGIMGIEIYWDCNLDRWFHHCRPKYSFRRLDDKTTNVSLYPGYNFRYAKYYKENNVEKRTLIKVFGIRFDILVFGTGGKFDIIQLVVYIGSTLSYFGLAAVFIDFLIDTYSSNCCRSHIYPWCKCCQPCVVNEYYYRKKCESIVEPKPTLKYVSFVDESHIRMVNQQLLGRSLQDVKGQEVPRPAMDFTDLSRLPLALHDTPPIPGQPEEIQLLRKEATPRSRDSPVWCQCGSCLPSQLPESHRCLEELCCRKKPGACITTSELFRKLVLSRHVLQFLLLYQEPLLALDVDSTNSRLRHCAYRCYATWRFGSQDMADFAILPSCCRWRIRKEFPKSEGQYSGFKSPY
Further details: hP2X7 (IC50; nM); other: hP2X7; HEK-293 cells stably transfected with P2X7 receptor, Bz-ATP at EC80, Fluo-8 NW; potency. The note with it: hP2X7; HEK-293 cells stably transfected with P2X7 receptor, Bz-ATP at EC80, Fluo-8 NW; potency ranges A-D. The method, boiled down:
(§1)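 Compounds were added to Fluo-8-loaded P2X7-transfected HEK-293 cells 5 min before an EC80 Bz-ATP challenge, and Ca2+ influx was then recorded for 3 min. Buffer held 0.3 mM Ca2+ and no Mg2+. Inhibition was normalised to A438079, giving IC50 values.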

Assay [2] concerns the target T2, P2X7 receptor (Rattus norvegicus, UniProt Q64663).
T2 construct: rP2X7 (IC50; nM); other: rP2X7; HEK-293 cells stably transfected with P2X7 receptor, Bz-ATP at EC80, Fluo-8 NW; potency
T2 sequence (Q64663 1-595): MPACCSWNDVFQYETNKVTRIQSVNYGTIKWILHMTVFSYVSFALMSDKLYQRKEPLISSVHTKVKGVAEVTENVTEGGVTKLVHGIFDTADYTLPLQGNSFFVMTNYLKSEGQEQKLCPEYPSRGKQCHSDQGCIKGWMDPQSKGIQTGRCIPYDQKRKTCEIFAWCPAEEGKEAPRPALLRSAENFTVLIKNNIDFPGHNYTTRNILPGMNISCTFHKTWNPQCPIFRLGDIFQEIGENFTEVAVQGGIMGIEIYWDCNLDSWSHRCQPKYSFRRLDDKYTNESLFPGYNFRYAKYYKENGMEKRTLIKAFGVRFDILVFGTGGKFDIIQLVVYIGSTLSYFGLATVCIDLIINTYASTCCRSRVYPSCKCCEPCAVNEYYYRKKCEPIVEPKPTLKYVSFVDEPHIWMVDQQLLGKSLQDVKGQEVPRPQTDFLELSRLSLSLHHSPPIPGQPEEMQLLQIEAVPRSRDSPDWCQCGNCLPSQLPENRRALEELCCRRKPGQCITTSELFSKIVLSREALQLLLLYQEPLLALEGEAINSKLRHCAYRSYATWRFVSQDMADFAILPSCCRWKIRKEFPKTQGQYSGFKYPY
The settings on record: rP2X7; HEK-293 cells stably transfected with P2X7 receptor, Bz-ATP at EC80, Fluo-8 NW; potency ranges A-D. Summed up:
as §1

For assay [3], the target named is T3, P2X7 receptor (Mus musculus, UniProt Q9Z1M0).
T3 construct: mP2X7 (IC50; nM); other: mP2X7; HEK-293 cells stably transfected with P2X7 receptor, Bz-ATP at EC80, Fluo-8 NW; potency
T3 sequence (Q9Z1M0 1-595): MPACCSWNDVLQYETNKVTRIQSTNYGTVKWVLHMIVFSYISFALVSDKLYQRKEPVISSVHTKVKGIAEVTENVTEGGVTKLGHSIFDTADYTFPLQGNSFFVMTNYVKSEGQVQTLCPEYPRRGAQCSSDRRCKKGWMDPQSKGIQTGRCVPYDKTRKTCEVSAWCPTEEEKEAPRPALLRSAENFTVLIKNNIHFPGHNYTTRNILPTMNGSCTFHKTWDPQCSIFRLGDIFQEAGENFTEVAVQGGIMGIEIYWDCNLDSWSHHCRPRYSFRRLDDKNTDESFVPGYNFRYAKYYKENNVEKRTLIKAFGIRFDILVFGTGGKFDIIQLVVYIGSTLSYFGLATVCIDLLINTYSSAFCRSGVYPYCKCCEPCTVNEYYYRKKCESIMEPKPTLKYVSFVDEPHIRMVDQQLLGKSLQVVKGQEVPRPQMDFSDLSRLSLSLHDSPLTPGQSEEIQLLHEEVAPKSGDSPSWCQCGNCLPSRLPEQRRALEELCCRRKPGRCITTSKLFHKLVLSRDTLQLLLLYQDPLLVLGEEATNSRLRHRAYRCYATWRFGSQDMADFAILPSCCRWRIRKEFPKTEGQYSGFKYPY
The settings on record: mP2X7; HEK-293 cells stably transfected with P2X7 receptor, Bz-ATP at EC80, Fluo-8 NW; potency ranges A-D. The method, boiled down: as §1

As a reminder, the IC50 is the concentration at which inhibition is half-maximal. On to `O=c1onc(CC2CCC(F)(F)CC2)n1Cc1cccc(C(F)(F)F)c1Cl` [Example 167, 4-{[2-chloro-3-(trifluoromethyl)phenyl]methyl}-3-[(4,4-dffluorocyclohexyl)methyl]-4,5-dihydro-1,2,4-oxadiazol-5-one], for which the IC50 at P2X7 receptor [1] was > 10000 nM; at P2X7 receptor [2], 1000 to 10000 nM; at P2X7 receptor [3] it was 1000 to 10000 nM.

Take `O=c1onc(CC2CCC(F)(F)CC2)n1Cc1ccno1` [Example 199, 3-[(4,4-difluorocyclohexyl)methyl]-4-[(1,2-oxazol-5-yl)methyl]-1,2,4-oxadiazol-5(4H)-one]: the IC50 on P2X7 receptor [1] is > 10000 nM; at P2X7 receptor [2] it was 1000 to 10000 nM; at P2X7 receptor [3] it was 1000 to 10000 nM.

In the case of `O=c1onc(C(O)c2cccc(C(F)(F)F)c2Cl)n1Cc1ccccc1` (stereo not drawn) [Example 136, 4-benzyl-3-{[2-chloro-3-(trifluoromethyl)phenyl](hydroxy)methyl}-4,5-dihydro-1,2,4-oxadiazol-5-one], the figures for the IC50 on P2X7 receptor [1], at P2X7 receptor [2] and at P2X7 receptor [3] were 1000 to 10000 nM, > 10000 nM and > 10000 nM, respectively.

As for `O=c1onc(C(O)c2cccc(Cl)c2Cl)n1Cc1c(F)cccc1Cl` (stereo not drawn) [Example 138, 4-[(2-chloro-6-fluorophenyl)methyl]-3-[(2,3-dichlorophenyl)(hydroxy)methyl]-4,5-dihydro-1,2,4-oxadiazol-5-one], the IC50 on P2X7 receptor [1], on P2X7 receptor [2] and at P2X7 receptor [3] was 1000 to 10000 nM in each case.

Take `O=c1onc(Cc2c(F)cccc2Cl)n1CC1CC=CC1` [Example 183, 3-[(2-chloro-6-fluorophenyl)methyl]-4-(cyclopent-3-en-1-ylmethyl)-4,5-dihydro-1,2,4-oxadiazol-5-one]: the IC50 on P2X7 receptor [1] was 200 to 1000 nM; at P2X7 receptor [2], 200 to 1000 nM; at P2X7 receptor [3], 1000 to 10000 nM.

On to `O=c1onc(Cc2ccccc2Cl)n1CC1CCC(F)(F)CC1` [Example 158, 3-[(2-chlorophenyl)methyl]-4-[(4,4-difluorocyclohexyl)methyl]-4,5-dihydro-1,2,4-oxadiazol-5-one], for which the IC50 on P2X7 receptor [1] is < 200 nM; on P2X7 receptor [2], < 200 nM; on P2X7 receptor [3], 200 to 1000 nM.

In the case of `O=c1onc(Cc2ccncc2)n1Cc1ccc(F)cc1` [Example 79, 4-[(4-fluorophenyl)methyl]-3-(pyridin-4-ylmethyl)-4,5-dihydro-1,2,4-oxadiazol-5-one], the IC50 at P2X7 receptor [1], on P2X7 receptor [2] and on P2X7 receptor [3] was > 10000 nM in each case.

As for `O=c1onc(Cc2c(F)cccc2Cl)n1Cc1nccs1` [Example 34, 3-[(2-chloro-6-fluorophenyl)methyl]-4-(1,3-thiazol-2-ylmethyl)-4,5-dihydro-1,2,4-oxadiazol-5-one], the IC50 at P2X7 receptor [1], on P2X7 receptor [2] and at P2X7 receptor [3] was > 10000 nM in each case.

`Cc1cc(Cn2c(CC3CCC(F)(F)CC3)noc2=O)n(C)n1` [Example 195, 3-[(4,4-difluorocyclohexyl)methyl]-4-[(1,3-dimethyl-1H-pyrazol-5-yl)methyl]-1,2,4-oxadiazol-5(4H)-one]: the IC50 at P2X7 receptor [1], on P2X7 receptor [2] and at P2X7 receptor [3] was 200 to 1000 nM each time.

`Cc1cc(Cn2c(Cc3c(F)cccc3Cl)noc2=O)n(C)n1` [Example 46, 3-[(2-chloro-6-fluorophenyl)methyl]-4-[(1,3-dimethyl-1H-pyrazol-5-yl)methyl]-4,5-dihydro-1,2,4-oxadiazol-5-one]: the IC50 on P2X7 receptor [1], on P2X7 receptor [2] and on P2X7 receptor [3] was > 10000 nM throughout.

For the compound `Cc1noc(C)c1Cc1noc(=O)n1Cc1c(F)cccc1Cl` [Example 209, 4-[(2-chloro-6-fluorophenyl)methyl]-3-[(dimethyl-1,2-oxazol-4-yl)methyl]-4,5-dihydro-1,2,4-oxadiazol-5-one], the figures for the IC50 on P2X7 receptor [1], at P2X7 receptor [2] and at P2X7 receptor [3] were 1000 to 10000 nM, > 10000 nM and > 10000 nM, respectively.

As for `CC(c1ccccc1)n1c(CC2CCC(F)(F)CC2)noc1=O` (stereo not drawn) [Example 188, 3-[(4,4-difluorocyclohexyl)methyl]-4-(1-phenylethyl)-4,5-dihydro-1,2,4-oxadiazol-5-one], the IC50 at P2X7 receptor [1], at P2X7 receptor [2] and on P2X7 receptor [3] was 1000 to 10000 nM throughout.

With `O=c1onc(Cc2ccccc2)n1Cc1c(F)cccc1Cl` [Example 6, 3-benzyl-4-[(2-chloro-6-fluorophenyl)methyl]-4,5-dihydro-1,2,4-oxadiazol-5-one], the IC50 on P2X7 receptor [1], on P2X7 receptor [2] and at P2X7 receptor [3] was 1000 to 10000 nM each time.

Turning to `O=c1onc(Cc2c(F)cccc2Cl)n1Cc1c(F)cccc1Cl` [Example 18, bis[(2-chloro-6-fluorophenyl)methyl]-4,5-dihydro-1,2,4-oxadiazol-5-one], the IC50 at P2X7 receptor [1], on P2X7 receptor [2] and at P2X7 receptor [3] was 1000 to 10000 nM throughout.

Take `O=c1onc(Cc2c(F)cccc2Cl)n1CC1CCCOC1` (stereo not drawn) [Example 89, 3-[(2-chloro-6-fluorophenyl)methyl]-4-(oxan-3-ylmethyl)-4,5-dihydro-1,2,4-oxadiazol-5-one]: the IC50 at P2X7 receptor [1] is 1000 to 10000 nM; at P2X7 receptor [2], 1000 to 10000 nM; on P2X7 receptor [3], > 10000 nM.

`COc1cccc(Cc2noc(=O)n2CC2CCC(F)(F)CC2)c1` [Example 160, 4-[(4,4-difluorocyclohexyl)methyl]-3-[(3-methoxyphenyl)methyl]-4,5-dihydro-1,2,4-oxadiazol-5-one]: the IC50 on P2X7 receptor [1] lay within 200 to 1000 nM; at P2X7 receptor [2] it was 200 to 1000 nM; at P2X7 receptor [3], 1000 to 10000 nM.

Consider `O=c1onc(CC2CCC(F)(F)CC2)n1Cc1ccccc1F` [Example 165, 3-[(4,4-difluorocyclohexyl)methyl]-4-[(2-fluorophenyl)methyl]-4,5-dihydro-1,2,4-oxadiazol-5-one], for which the IC50 is 200 to 1000 nM on P2X7 receptor [1], < 200 nM at P2X7 receptor [2] and 200 to 1000 nM at P2X7 receptor [3].

Consider `O=c1onc(Cc2ccc(F)cc2F)n1Cc1ccc(F)cc1` [Example 80, 3-[(2,4-difluorophenyl)methyl]-4-[(4-fluorophenyl)methyl]-4,5-dihydro-1,2,4-oxadiazol-5-one], for which the IC50 on P2X7 receptor [1] was 1000 to 10000 nM; on P2X7 receptor [2] it was 1000 to 10000 nM; at P2X7 receptor [3] it was > 10000 nM.

Take `O=c1onc(Cc2c(F)cccc2Cl)n1Cc1ccccc1C(F)(F)F` [Example 23, 3-[(2-chloro-6-fluorophenyl)methyl]-4-{[2-(trifluoromethyl)phenyl]methyl}-4,5-dihydro-1,2,4-oxadiazol-5-one]: the IC50 at P2X7 receptor [1] was 1000 to 10000 nM; at P2X7 receptor [2], 1000 to 10000 nM; on P2X7 receptor [3], > 10000 nM.

The values above are taken from patent US11623919B2, “Heterocyclic P2X7 antagonists” (AXXAM S.P.A., priority 2017, dated 2023).
